Laboratory results as given in patent US20080280810A1, “PEPTIDES HAVING AFFINITY FOR BODY SURFACES” (priority 2006, published 2008).

Key:
[1] = Phage ELISA, bovine polished enamel binding assay; details: over 10^10 pfu purified phage, anti-M13 HRP conjugate, TMB, no phage control 0.193
Experimental: (§1) A total of 11 selected phage candidates (Example 32) was used in a phage ELISA experiment. Purified phage lysates were used for binding to the enamel blocks using an anti-M13 phage antibody conjugated to horseradish-peroxidase, followed by the addition of chromogenic agent TMB, obtained from Pierce Biotechnology (Rockford, Ill.). The plates were read at A450 nm.
(§2) For each phage candidate to be tested, the polished and unpolished enamel blocks were incubated for 1 h at room temperature with 200 μL of blocking buffer, consisting of 2% non-fat dry milk (Schleicher & Schuell, Inc.) in TBS. The blocking buffer was removed by aspirating the liquid out of each tube. The tube was rinsed 6 times with wash buffer consisting of TBST-0.05%. The wells were filled with 200 μL of TBST-0.5% containing 1 mg/mL BSA and then 10 μL (over 10^10 pfu) of purified phage stock was added. The samples were incubated at room temperature for 60 min with slow shaking. The non-binding phage was removed by washing 6 times with TBST-0.5%. Then, 100 μL of horseradish peroxidase/anti-M13 antibody conjugate (Amersham USA, Piscataway, N.J.), diluted 1:500 in the blocking buffer, was added and incubated for 1 h at room temperature. The conjugate solution was removed and was washed 6 times with TBST-0.5%. TMB substrate (200 μL), obtained from Pierce Biotechnology (Rockford, Ill.) was added to each well and the color was allowed to develop for 5 to 30 min, typically for 10 min, at room temperature. Then, stop solution (200 μL of 2 M H2SO4) was added to each well and the solution was transferred to a 96-well plate and the A450 was measured using a microplate spectrophotometer (Molecular Devices, Sunnyvale, Calif.). BoEn means bovine enamel and BoEn P means polished bovine enamel.

[2] = Phage ELISA, bovine enamel binding assay; details: over 10^10 pfu purified phage, anti-M13 HRP conjugate, TMB, no phage control 0.112
Experimental: as §1, §2

[3] = Co-application of multi-block peptide with semi-permanent dye (Arianor Ebony), color retention; set-up: species or system human; details: difference in Delta E between peptide sample and peptide free control after 3 embrocation cycles (about 12 manual shampoos); pH 8.5-9.0; >2 benefit, >4 substantial benefit
Experimental: (§3) A 0.5% aqueous solution of Arianor Ebony (Sensient Technologies Corp, Milwaukee, Wis.) containing 3% benzyl alcohol and 0.05% diazolidinyl urea (biocide) was prepared. Dye insolubles were removed by filtration and the pH of the dye solution was adjusted to 8.50-9.0, using ethanolamine.
(§4) Approximately 1 mL of the dye solution was added to selected wells of a 24-well plate (Thomson Instrument Co., Oceanside, Calif.; part # 931565). A multi-block peptide (see Table 12) was dissolved in a solution consisting of 3 wt % benzyl alcohol and 95 wt % water to yield a peptide concentration of 2 wt % or approximately 20 mg/mL. The pH was adjusted to 8.5-9.0 using ethanolamine. The peptide solution was then pipetted into test wells containing dye solution in the amount of 1 mL or 0.2 mL respectively. The total volume in each test well was then adjusted to 2 mL where necessary using 3% aqueous benzyl alcohol (pH adjusted to 8.5-9.0 with ethanolamine). Peptide free controls consisted of 1 mL of dye solution diluted to 2 mL with the pH adjusted aqueous benzyl alcohol solution.
(§5) Baseline […] readings were made on one inch long tresses (see below) using an X-RITE® SP78™ Sphere Spectrophotometer (X-Rite, Inc., Grandville, Mich.), by placing the hair tress into the photosensor and calculating L*, a* and b* parameters representing the photometer response. All measurements were the average of three individual determinations.
(§6) The tresses (potted on one end with resin) of natural white, 85% gray or regular bleached hair (International Hair Importers and Products, Bellerose, N.Y.) were immersed in the peptide/dye solution and the entire well plate was agitated on a VORTEX-GENIE® 2 Mixer (Scientific Industries, Bohemia, N.Y.) at a speed setting of 1 for 30 minutes. The tresses were removed from the wells, rinsed for 30 seconds under flowing deionized water and then air dried.
(§7) The following complement of beads was then added to each well containing a hair tress: (8 beads in all; 4 Novagen Coli Rollers Plating Beads—sterilized (EMD Biosciences, San Diego, Calif.; Catalog No. 71013), 2 BioSpec 6.35 mm glass beads (BioSpec Products, Bartlesville, Okla.; Catalog No. 11079635), and 2 BioSpec 3.2 mm Stainless Steel Bead (Catalog No. 11079132ss).
(§8) Then 2.5 mL of aqueous 50% Pantene Pro V® shampoo (Proctor & Gamble Co., Cincinnati, Ohio) was pipetted into each well. The plate was placed on a VWR® VX-2500 Multi-tube Vortexer (VWR, West Chester, Pa.) for 5 minutes to simulate shampooing with embrocation. The hair tresses were then rinsed under flowing deionized water and air dried. This cycle was repeated two more times except that the length of time was 10 minutes for both subsequent embrocation cycles. (This treatment was previously determined to simulate approximately 12 manual shampoo cycles.) At the conclusion of the third embrocation cycle L*, a* and b* values were measured and Delta E values (ΔE) were calculated using equation 1 below:
(§9) where L*=the lightness variable and a* and b* are the chromaticity coordinates of CIELAB colorspace as defined by the International Commission of Illumination (CIE) (Minolta, Precise Color Communication—Color Control From Feeling to Instrumentation, Minolta Camera Co., 1996).
(§10) The Delta E value (ΔE) indicates color retention relative to the non-dyed hair and larger Delta E values indicate better performance. Values listed in the table represent the difference in Delta E values between the peptide-containing sample and the peptide free control. This difference is indicative of color retention after shampoo or water rinse treatments and positive values indicate better performance relative to the peptide free controls (Table 12).

[4] = as above; set-up: species or system human; key: ΔE of peptide sample minus peptide-free control; larger = better retention; details: difference in Delta E between peptide sample and peptide free control after 3 embrocation cycles (about 12 manual shampoos); pH 8.5-9.0; >2 benefit, >4 substantial benefit
Experimental: as §3, §4, §5, §6, §7, §8, §9, §10

[5] = Color retention after shampoo treatment, peptide as sealant with Acid Red 33 dye; set-up: species or system human; details: 0.50 wt % Acid Red 33, peptide 0.25 wt %, 30 min contact, after one shampoo treatment; vs uncolored hair; larger = better color retention; dye alone 19.63
Experimental: The peptides used in this Example were prepared as described in Examples 1-3. The color retention was quantified using a spectrophotometric measurement technique.
A peptide given as SEQ ID NO:41, SEQ ID NO:42, or SEQ ID NO:43 (38 mg), produced via fermentation as described in Examples 1-3, was added to 15 g of an aqueous 0.50 wt % solution of Acid Red 33 (Abbey Color, Philadelphia, Pa.) and the solution was allowed to stir for 1 h. A natural white hair tress (1 cm wide, potted, International Hair Importers & Products Inc., Bellerose, N.Y.) was inserted into a 15 mm×125 mm test tube and 13 mL of the peptide/dye mixture was injected into the test tube. The hair tress was immersed in contact with the colorant solution for 30 min and the colorant solution was agitated using a magnetic stirrer. The tress was removed, allowed to drip dry, and then air dried for 30 min.
The hair tress was then subjected to a water rinse using copious amounts of deionized water, followed by a shampoo treatment with embrocation for 30 seconds. The shampoo treatment involved the application of Pantene Pro-V Sheer Volume shampoo (Proctor & Gamble, Cincinnati, Ohio) to the hair as follows. A quarter-sized drop of the shampoo was distributed evenly over the hair tress and then was massaged aggressively into the hair for 30 sec, after which the hair tress was rinsed with water to remove the shampoo. The hair tress was then dried at room temperature. The entire procedure described above was repeated without the addition of the hair-binding peptide to serve as a control.
The color intensity after the shampoo treatment was measured using an X-Rite® SP78™ Sphere Spectrophotometer (X-Rite, Inc., Grandville, Mich.), by placing the colored hair sample into the photosensor and calculating L*, a* and b* parameters representing the photometer response. An initial baseline L* value was measured for the uncolored hair and all measurements were the average of three individual determinations. Delta E values were calculated using equation 1 below: […]

[6] = Charged multi-block peptide applied to dyed hair (Arianor Sienna Brown, Basic Brown 17) as protective sealant, color loss; set-up: species or system human; key: ΔE color loss vs peptide-free control; ≥3 units = meaningful difference
Experimental: A 0.5% aqueous Arianor Sienna Brown (Basic Brown 17; Sensient Technologies Corp, Milwaukee, Wis.) solution, containing 3% benzyl alcohol and 0.05% diazolidinyl urea (biocide) was prepared. This dye solution was divided into two equal volumes, one unmodified at pH4 and a second portion adjusted to pH ranged from 8.50 to 9.0, using ethanolamine.
Minitresses (1 inch long) of natural white hair (International Hair Importers and Products, Bellerose, N.Y.) were immersed into the acidic or basic dye solutions for 30 minutes, water rinsed and then air dried overnight. The tresses were then cut into individual sections weighing 30-75 mg each. L*, a*, b* values for individual dyed hair tresses were then measured using a spectrophotometer.
Aqueous peptide solutions varying in concentration were adjusted by addition of ethanolamine to pH […] or made slightly basic (pH 8.5-9.0). The 3% benzyl alcohol diluent was also pH adjusted in the same fashion.
Each cavity of a well plate (Thomson Instrument Co. part no. 931565, 24-10 ml wells), contained the assortment of beads (8 beads in all; 4 Novagen Coli Rollers Plating Beads—sterilized (EMD Biosciences, San Diego, Calif.; Catalog No. 71013), 2 BioSpec 6.35 mm glass beads (BioSpec Products, Bartlesville, Okla.; Catalog No. 11079635), and 2 BioSpec 3.2 mm Stainless Steel Bead (Catalog No. 11079132ss).
Target peptide and diluent were added using an automatic pipette. Controls without peptide were made using pH-adjusted diluent only. After several minutes of mixing (VORTEX-GENIE® 2, Scientific Industries, Bohemia, N.Y.) a small dyed hair tress was added to each well and stirred for 30 minutes on the vortex mixer. When stirring was complete, the hair tresses were removed from the wells and rinsed under running deionized water for 20-30 seconds.
The wet hair tresses were inserted into a modified well plate into which holes had been drilled to allow them to be air dried. Once the tresses were dried, colorimetric readings were taken for color loss after water rinse. Hair tresses were reinserted into their respective wells along with beads and 2.5 mL of aqueous 50% Pantene Pro V® shampoo was pipetted onto the hair. The plate was placed into a VWR® VX-2500 Multi-tube Vortexer (VWR, West Chester, Pa.) for 5-15 minutes to simulate shampooing with embrocation. The hair tresses were then rinsed under flowing deionized water and air dried. This cycle was repeated according to the number of simulated embrocation cycles desired. Colorimetric data for color loss was compiled and plotted against peptide free controls. A difference of at least 3 Delta E units verses controls was judged to be sufficient for differentiating peptide performance verses peptide free controls.

In the case of VGTMKQHPTTTQPPRVSATN [BoEn 9], the “O.D. at 450 nm” value [1] is reported as 0.568.

With EPPTRTRVNNHTVTVQAQQH [BoEn P2] the “O.D. at 450 nm” value [2] was 0.641.

For NFCETQLDLSVCTV [BoEn P5], the “O.D. at 450 nm” value [2] was 0.797.

For GYCLRGDEPAVCSG [BoEn P3], the “O.D. at 450 nm” value [2] was 0.665.

With “KF11-GGG-GHGHQKQHGLGHGHKHGHGHGHGHGK (PNTSQLSTGGGGHGHQKQHGLGHGHKHGHGHGHGHGK; Peptide having affinity for hair) [HC 81]” the “ΔE Retention Ebony Dye with 85% Gray Hair” value [3] was 7.58, the “ΔE Retention Ebony Dye Regular Bleached Hair” value [4] was −0.1 and the “ΔE Retention Ebony dye with Natural White Hair” value [4] was 0.6. For the same molecule, the “Delta E” value [5] was 31.57.

With YSETPNDQKPNPHYKVSGTK [BoEn 10] the “O.D. at 450 nm” value [1] was 3.942.

With NTCATSPNSYTCSN [BoEn 6] the “O.D. at 450 nm” value [1] was 2.38.

For “SSNYNYNYNYQYSSR-KRKRKD (SSNYNYNYNYQYSSRKRKRKD; Peptide having affinity for hair) [Dye-1 Cationic]”, the “ΔE Loss” value ([6]; pH 4.5, 25 shampoo equivalents) was 6 and the “ΔE Loss” value ([6]; pH 8.7, 25 shampoo equivalents) was 3.22.

For SDCTAGLVPPLCAT [BoEn 7], the “O.D. at 450 nm” value [1] was 0.892.

For “SSNYNYNYNYQYSSR (Peptide having affinity for hair) [Dye-1, reference compound]”, the “ΔE Loss” value ([6]; pH 3.9, 12 shampoo equivalents) was 14.

With “SSNYNYNYNYQYSSR-EGEGER (SSNYNYNYNYQYSSREGEGER; Peptide having affinity for hair) [Dye-1 Anionic]” the “ΔE Loss” value ([6]; pH 4.5, 12 shampoo equivalents) was 1.93 and the “ΔE Loss” value ([6]; pH 8.8, 12 shampoo equivalents) was 0.34.

In the case of AANPHTEWDRDAFQLAMPPK [BoEn 1], the “O.D. at 450 nm” value [1] is reported as 1.402.

In the case of THNMSHFPPSGHPKRTAT [BoEn P8], the “O.D. at 450 nm” value [2] is reported as 2.02.

In the case of LNDQRKPGPPTMPTHSPAVG [BoEn 5], the “O.D. at 450 nm” value [1] is reported as 0.944.

With NTCQPTKNATPCSA [BoEn P6] the “O.D. at 450 nm” value [2] was 0.83.

B1: PG-PMMA9-GAG-PMMA9-GGSGPGSGG-KF11-GS(KGGGS)4-KF11-GGPWKK (peptide)
chain: PGIDTFYMSTMSHSGAGIDTFYMSTMSHSGGSGPGSGGNTSQLSTGSKGGGSKGGGSKGGGSKGGGSNTSQLSTGGPWKK
modifications: Peptide having affinity for hair
For B1, the “ΔE Loss” value ([6]; pH 5.7, 12 shampoo equivalents) was 11.41.

B2: PG-PMMA4A-GAG-PMMA4A-GGSGPGSGG-KF11-GGG-KF11-GGPKK (peptide)
chain: PGHTHHDTHKPWPTDAHRNSSVGAGHTHHDTHKPWPTDAHRNSSVGGSGPGSGGNTSQLSTGGGNTSQLSTGGPKK
modifications: Peptide having affinity for hair
With B2 the “ΔE Loss” value ([6]; pH 5.1, 12 shampoo equivalents) was 11.56 and the “ΔE Loss” value ([6]; pH 8.8, 12 shampoo equivalents) was 6.95.
